Test results published in patent US20100168102A9, “Amide Derivatives as Kinase Inhibitors” (Devgen NV, priority 2005, published 2010).
Counter-ions that a name gives are not always drawn. Like-named read-outs stand apart in the source and are kept apart here.

How the values were obtained:
PKC epsilon = molecular target: T1, PKC epsilon (Homo sapiens, UniProt Q02156); assay: Biochemical assay for PKC epsilon (fluorescence polarization, Protein Kinase C Assay Kit, Red); settings: read-out: IC50 μM PKCε
T1 construct: purchased Invitrogen P2282
T1 sequence (Q02156 1-737): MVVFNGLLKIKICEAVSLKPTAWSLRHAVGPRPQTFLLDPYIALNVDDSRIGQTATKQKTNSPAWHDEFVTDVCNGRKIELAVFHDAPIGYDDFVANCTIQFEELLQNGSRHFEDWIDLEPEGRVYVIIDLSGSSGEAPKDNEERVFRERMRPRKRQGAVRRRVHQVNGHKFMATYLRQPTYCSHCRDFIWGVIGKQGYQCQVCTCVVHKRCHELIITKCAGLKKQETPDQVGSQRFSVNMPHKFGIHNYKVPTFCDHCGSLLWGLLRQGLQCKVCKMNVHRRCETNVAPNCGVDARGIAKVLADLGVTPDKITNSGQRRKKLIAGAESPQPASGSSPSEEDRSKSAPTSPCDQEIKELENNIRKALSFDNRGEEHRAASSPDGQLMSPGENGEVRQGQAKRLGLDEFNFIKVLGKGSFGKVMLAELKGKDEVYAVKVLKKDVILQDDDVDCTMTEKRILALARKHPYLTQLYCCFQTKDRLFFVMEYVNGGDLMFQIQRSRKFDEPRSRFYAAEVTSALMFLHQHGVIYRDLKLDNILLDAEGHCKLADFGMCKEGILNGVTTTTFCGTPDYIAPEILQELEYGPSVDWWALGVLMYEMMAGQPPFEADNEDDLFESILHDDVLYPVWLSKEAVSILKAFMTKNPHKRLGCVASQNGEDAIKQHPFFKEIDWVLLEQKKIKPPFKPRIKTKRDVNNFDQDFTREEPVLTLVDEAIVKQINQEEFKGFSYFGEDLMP
Outline: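 Read-out was fluorescence-polarization competition between phosphorylated substrate and a rhodamine PKC tracer for an anti-phosphoserine antibody, added with EDTA stop after an 80 min room-temperature kinase reaction with ATP and protein substrate (Mg2+/Ca2+ buffer). Enzyme (10 ng/ml final) was preincubated with compound for 30 min.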

human ROCKα/ROCKII mix = molecular target: T2, human ROCKα/ROCKII mix (Homo sapiens, UniProt O75116); assay: Biochemical assay for ROCK (fluorescence polarization, ROCK IMAP Kit)
T2 construct: purchased Upstate Biotechnology 14-451

[1] = Table 2, compounds of Formula XIII
[2] = compounds of Formula XIV, Table 3

T2 sequence (O75116 11-552 limits assumed): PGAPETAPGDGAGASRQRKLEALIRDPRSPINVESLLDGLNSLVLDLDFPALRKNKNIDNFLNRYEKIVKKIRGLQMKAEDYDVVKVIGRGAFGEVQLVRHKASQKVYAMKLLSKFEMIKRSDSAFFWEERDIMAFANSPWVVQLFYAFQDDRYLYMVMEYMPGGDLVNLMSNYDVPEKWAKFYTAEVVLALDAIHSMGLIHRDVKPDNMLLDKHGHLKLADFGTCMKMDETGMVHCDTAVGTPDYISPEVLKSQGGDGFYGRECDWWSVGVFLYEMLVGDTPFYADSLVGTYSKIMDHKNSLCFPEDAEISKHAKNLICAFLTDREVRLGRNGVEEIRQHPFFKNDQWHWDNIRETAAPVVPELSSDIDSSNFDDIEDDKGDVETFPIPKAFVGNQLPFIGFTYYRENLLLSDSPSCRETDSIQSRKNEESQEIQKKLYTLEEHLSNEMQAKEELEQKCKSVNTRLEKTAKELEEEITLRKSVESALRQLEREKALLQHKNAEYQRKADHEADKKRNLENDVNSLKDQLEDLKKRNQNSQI

Row | IC50 (PKC epsilon; [1]) | IC50 (human ROCKα/ROCKII mix; [1]) | IC50 (PKC epsilon; [2]) | IC50 (human ROCKα/ROCKII mix; [2]) | SMILES
1 | 0.05 to 0.5 µM | 0.05 to 0.5 µM | – | – | NC(CNC(=O)Cc1ccc(F)c(F)c1)c1ccc(C(=O)Nc2ccncc2)cc1 (centres unmarked) [Compound 167, 4-{1-Amino-2-[2-(3,4-difluoro-phenyl)-acetylamino]-ethyl}-N-pyridin-4-yl-benzamide dihydrochloride]
2 | – | – | 0.5 to 5 µM | 0.05 to 0.5 µM | CCNC(=O)CC(N)c1ccc(C(=O)Nc2ccncc2)cc1 (centres unmarked) [Compound 169]
3 | – | – | 0.5 to 5 µM | 0.05 to 0.5 µM | CC(C)C(C)NC(=O)CC(N)c1ccc(C(=O)Nc2ccncc2)cc1 (centres unmarked) [Compound 170, 4-[1-amino-2-(1,2-dimethyl-propylcarbamoyl)-ethyl]-N-pyridin-4-yl-benzamide]
4 | – | – | 0.5 to 5 µM | 0.05 to 0.5 µM | CN(C)CCNC(=O)CC(N)c1ccc(C(=O)Nc2ccncc2)cc1 (centres unmarked) [Compound 174, 4-[1-amino-2-(2-dimethylamino-ethylcarbamoyl)-ethyl]-N-pyridin-4-yl-benzamide]
5 | – | – | 0.5 to 5 µM | 0.05 to 0.5 µM | CC(=O)NCCNC(=O)CC(N)c1ccc(C(=O)Nc2ccncc2)cc1 (centres unmarked) [Compound 175, 4-[2-(2-acetylamino-ethylcaramoyl)-1-amino-ethyl]-N-pyridin-4-yl-benzamide]
6 | – | – | 0.5 to 5 µM | 0.05 to 0.5 µM | CS(=O)(=O)NCCNC(=O)CC(N)c1ccc(C(=O)Nc2ccncc2)cc1 (centres unmarked) [Compound 176, 4-[1-amino-2-(2-methanesulfonylamino-ethylcarbamoyl)-ethyl]-N-pyridin-4-yl-benzamide]
7 | – | – | 5 to 50 µM | 0.5 to 5 µM | N#CCCN(C(=O)CC(N)c1ccc(C(=O)Nc2ccncc2)cc1)C1CC1 (centres unmarked) [Compound 178, 4-{1-amino-2-[(2-cyano-ethyl)-cyclopropyl-carbamoyl]-ethyl}-N-pyridin-4-yl-benzamide]
8 | – | – | 0.5 to 5 µM | 0.05 to 0.5 µM | CN(CCO)C(=O)CC(N)c1ccc(C(=O)Nc2ccncc2)cc1 (centres unmarked) [Compound 179, 4-{1-amino-2-[(2-hydroxy-ethyl)-methyl-carbamoyl]-ethyl}-N-pyridin-4-yl-benzamide]
9 | – | – | 0.5 to 5 µM | 0.05 to 0.5 µM | COCCNC(=O)CC(N)c1ccc(C(=O)Nc2ccncc2)cc1 (centres unmarked) [Compound 180, 4-[1-amino-2-(2-methoxy-ethylcarbamoyl)-ethyl]-N-pyridin-4-yl-benzamide]
10 | – | – | 0.5 to 5 µM | 0.05 to 0.5 µM | COCC(C)NC(=O)CC(N)c1ccc(C(=O)Nc2ccncc2)cc1 (centres unmarked) [Compound 181, 4-[1-amino-2-(2-methoxy-1-methyl-ethylcarbamoyl)-ethyl]-N-pyridin-4-yl-benzamide]
11 | – | – | 0.5 to 5 µM | 0.05 to 0.5 µM | COC(=O)C(C)NC(=O)CC(N)c1ccc(C(=O)Nc2ccncc2)cc1 (centres unmarked) [Compound 182]
12 | – | – | 0.5 to 5 µM | 0.05 to 0.5 µM | CONC(=O)CC(N)c1ccc(C(=O)Nc2ccncc2)cc1 (centres unmarked) [Compound 183, 4-(1-amino-2-methoxycarbamoyl-ethyl)-N-pyridin-4-yl-benzamide]
13 | – | – | 0.5 to 5 µM | 0.05 to 0.5 µM | NC(CC(=O)NCC1CCCO1)c1ccc(C(=O)Nc2ccncc2)cc1 (centres unmarked) [Compound 184, 4-{1-amino-2-[(tetrahydro-furan-2-ylmethyl)-carbamoyl]-ethyl}-N-pyridin-4-yl-benzamide]
14 | – | – | 0.5 to 5 µM | 0.05 to 0.5 µM | NC(CC(=O)NC1CCN(Cc2ccccc2)CC1)c1ccc(C(=O)Nc2ccncc2)cc1 (centres unmarked) [Compound 200, 4-[1-amino-2-(1-benzyl-piperidin-4-ylcarbamoyl)-ethyl]-N-pyridin-4-yl-benzamide]
15 | – | – | 0.5 to 5 µM | 0.05 to 0.5 µM | Cc1cccc(CN2CCC(NC(=O)CC(N)c3ccc(C(=O)Nc4ccncc4)cc3)CC2)c1 (centres unmarked) [Compound 201, 4-{1-amino-2-[1-(3-methyl-benzyl)-piperidin-4-ylcarbamoyl]-ethyl}-N-pyridin-4-yl-benzamide]
16 | – | – | 0.5 to 5 µM | 0.05 to 0.5 µM | Cc1ccc(CN2CCC(NC(=O)CC(N)c3ccc(C(=O)Nc4ccncc4)cc3)CC2)s1 (centres unmarked) [Compound 202]

Row | IC50 (PKC epsilon; [1]) | IC50 (human ROCKα/ROCKII mix; [1]) | IC50 (PKC epsilon; [2]) | IC50 (human ROCKα/ROCKII mix; [2]) | SMILES
17 | – | – | 0.5 to 5 µM | 0.05 to 0.5 µM | NC(CC(=O)NCc1ccccc1)c1ccc(C(=O)Nc2ccncc2)cc1 (centres unmarked) [Compound 213, 4-(1-Amino-2-benzylcarbamoyl-ethyl)-N-pyridin-4-yl-benzamide]
18 | – | – | 0.5 to 5 µM | 0.05 to 0.5 µM | CC(NC(=O)CC(N)c1ccc(C(=O)Nc2ccncc2)cc1)c1ccccc1 (centres unmarked) [Compound 215, 4-[1-Amino-2-(1-phenyl-ethylcarbamoyl)-ethyl]-N-pyridin-4-yl-benzamide]
19 | – | – | 0.5 to 5 µM | 0.05 to 0.5 µM | CC[C@@H](NC(=O)CC(N)c1ccc(C(=O)Nc2ccncc2)cc1)c1ccccc1 (stereo partly drawn) [Compound 216, 4-[1-Amino-2-(1-(R)-phenyl-propylcarbamoyl)-ethyl]-N-pyridin-4-yl-benzamide]
20 | – | – | 0.5 to 5 µM | 0.05 to 0.5 µM | CC[C@H](NC(=O)CC(N)c1ccc(C(=O)Nc2ccncc2)cc1)c1ccccc1 (stereo partly drawn) [Compound 217, 4-[1-Amino-2-(1-(S)-phenyl-propylcarbamoyl)-ethyl]-N-pyridin-4-yl-benzamide]
21 | – | – | 0.5 to 5 µM | 0.05 to 0.5 µM | CC(C)(NC(=O)CC(N)c1ccc(C(=O)Nc2ccncc2)cc1)c1ccccc1 (centres unmarked) [Compound 218, 4-[1-Amino-2-(1-methyl-1-phenyl-ethylcarbamoyl)-ethyl]-N-pyridin-4-yl-benzamide]
22 | – | – | 0.05 to 0.5 µM | 0.05 to 0.5 µM | NC(CC(=O)NC1CCCc2ccccc21)c1ccc(C(=O)Nc2ccncc2)cc1 (centres unmarked) [Compound 223, 4-[1-Amino-2-(1,2,3,4-tetrahydro-naphtalen-1-ylcarbamoyl)-ethyl]-N-pyridin-4-yl-benzamide]
23 | – | – | 0.5 to 5 µM | 0.05 to 0.5 µM | NC(CC(=O)NC(c1ccccc1)c1ccccc1)c1ccc(C(=O)Nc2ccncc2)cc1 (centres unmarked) [Compound 225, 4-[1-Amino-2-(benzhydryl-carbamoyl)-ethyl]-N-pyridin-4-yl-benzamide]
24 | – | – | 0.5 to 5 µM | 0.05 to 0.5 µM | NC(CC(=O)NC1c2ccccc2-c2ccccc21)c1ccc(C(=O)Nc2ccncc2)cc1 (centres unmarked) [Compound 227, 4-[1-Amino-2-(9H-fluoren-9-ylcarbamoyl)-ethyl]-N-pyridin-4-yl-benzamide]
25 | – | – | 0.05 to 0.5 µM | 0.05 to 0.5 µM | NC(CC(=O)NC1CCc2ccccc21)c1ccc(C(=O)Nc2ccncc2)cc1 (centres unmarked) [Compound 228, 4-[1-Amino-2-(indan-1-ylcarbamoyl)-ethyl]-N-pyridin-4-yl-benzamide]
26 | – | – | 0.5 to 5 µM | 0.05 to 0.5 µM | Cc1ccccc1CNC(=O)CC(N)c1ccc(C(=O)Nc2ccncc2)cc1 (centres unmarked) [Compound 231, 4-[1-Amino-2-(2-methyl-benzylcarbamoyl)-ethyl]-N-pyridin-4-yl-benzamide]
27 | – | – | 0.5 to 5 µM | 0.05 to 0.5 µM | Cc1cccc(CNC(=O)CC(N)c2ccc(C(=O)Nc3ccncc3)cc2)c1 (centres unmarked) [Compound 232, 4-[1-Amino-2-(3-methyl-benzylcarbamoyl)-ethyl]-N-pyridin-4-yl-benzamide]
28 | – | – | 0.5 to 5 µM | 0.05 to 0.5 µM | Cc1ccc(CNC(=O)CC(N)c2ccc(C(=O)Nc3ccncc3)cc2)cc1 (centres unmarked) [Compound 233, 4-[1-Amino-2-(4-methyl-benzylcarbamoyl)-ethyl]-N-pyridin-4-yl-benzamide]
29 | – | – | 0.5 to 5 µM | 0.05 to 0.5 µM | Cc1ccc(C)c(CNC(=O)CC(N)c2ccc(C(=O)Nc3ccncc3)cc2)c1 (centres unmarked) [Compound 234, 4-[1-Amino-2-(2,5-dimethyl-benzylcarbamoyl)-ethyl]-N-pyridin-4-yl-benzamide]
30 | – | – | 5 to 50 µM | 0.05 to 0.5 µM | COc1cccc(CNC(=O)CC(N)c2ccc(C(=O)Nc3ccncc3)cc2)c1OC (centres unmarked) [Compound 238, 4-[1-Amino-2-(2,3-dimethoxy-benzylcarbamoyl)-ethyl]-N-pyridin-4-yl-benzamide]
31 | – | – | 0.5 to 5 µM | 0.05 to 0.5 µM | COc1ccc(CNC(=O)CC(N)c2ccc(C(=O)Nc3ccncc3)cc2)cc1 (centres unmarked) [Compound 239, 4-[1-Amino-2-(4-methoxy-benzylcarbamoyl)-ethyl]-N-pyridin-4-yl-benzamide]
32 | – | – | 5 to 50 µM | 0.05 to 0.5 µM | COc1ccc(CNC(=O)CC(N)c2ccc(C(=O)Nc3ccncc3)cc2)cc1OC (centres unmarked) [Compound 240, 4-[1-Amino-2-(3,4-dimethoxy-benzylcarbamoyl)-ethyl]-N-pyridin-4-yl-benzamide]

Row | SMILES | IC50 (PKC epsilon; [1]) | IC50 (human ROCKα/ROCKII mix; [1]) | IC50 (PKC epsilon; [2]) | IC50 (human ROCKα/ROCKII mix; [2])
33 | CC(NC(=O)CC(N)c1ccc(C(=O)Nc2ccncc2)cc1)c1cccc2ccccc12 (centres unmarked) [Compound 229, 4-{1-Amino-2-(1-naphtalen-1-yl-ethylcarbamoyl)-ethyl]-N-pyridin-4-yl-benzamide] | – | – | 0.5 to 5 µM | 0.05 to 0.5 µM
34 | CC(NC(=O)CC(N)c1ccc(C(=O)Nc2ccncc2)cc1)c1cccc2ccccc12 (centres unmarked) [Compound 230, 4-[1-Amino-2-(1-naphtalen-1-yl-ethylcarbamoyl)-ethyl]-N-pyridin-4-yl-benzamide] | – | – | 0.5 to 5 µM | 0.05 to 0.5 µM
